Where a name gives a salt, the structure may show the parent alone. Read-outs that look alike come from different tables or passages of the source.
Test: Phase 1a single ascending dose study: UV-4 plasma concentrations and PK parameters (LC-MS/MS, noncompartmental)
Type: in vivo
Details: for Tmax: median; for AUC(0-t): read-out: AUC(0-8); for Vd/F: read-out: Vz/F
Method: UV-4 ((2R,3R,4R,5S)-2-(hydroxymethyl)-1-(9-methoxynonyl)piperidine-3,4,5-triol, also called N-(9’-methoxynonyl)-1-deoxynojirimycin, or MON-DNJ) hydrochloride was evaluated in a first-in-human, randomized, single-center, double-blind, placebo-controlled, parallel group, single ascending dose Phase 1a clinical trial in healthy subjects (Figs 1 and 2, ClinicalTrials.gov Identifier NCT02061358 https://clinicaltrials.gov/ct2/show/NCT02061358). The primary objective was to determine the safety and tolerability of a single-ascending oral dose of UV-4 hydrochloride (Fig 3). […] The secondary objective was to determine PK parameters describing absorption and elimination of UV-4 following a single oral dose of UV-4 hydrochloride. Eight cohorts of eight subjects each were enrolled and completed the study. In each cohort, six subjects received UV-4 as the hydrochloride; two received placebo. Subjects were screened against study eligibility criteria up to four weeks (Days -28 to -2) before admission to the clinic (Day -1). Dosing was performed on an inpatient basis. Subjects remained in clinic for 48 hours post-dosing for PK sample collection and safety assessments and were discharged from the clinic on Day 3. Subjects returned to the clinic on Day 4 for additional safety assessments, then again on Day 9 ± 1 for a final follow-up visit.
Eligible subjects were healthy males and females, age 18–45 years, with a body mass index between 18 and 30 kg/m^2 inclusive and a minimum body weight of 60 kg. Subjects were considered healthy based on medical history, physical exam, vital signs, 12-lead electrocardiogram (ECG), clinical laboratory tests (hematology, blood chemistry, urinalysis), viral serology, and drug and alcohol screening. Male and female subjects of childbearing potential were required to use adequate contraception over the course of the clinical trial. […] Only subjects who met all inclusion and none of the exclusion criteria prior to administration of the investigational product were enrolled into the study (no exemptions were granted). A total of 64 subjects were enrolled (eight cohorts of eight subjects each). In each of the eight cohorts, six subjects were randomized to receive a single dose of UV-4 (3 to 1000 mg, depending on cohort) as the hydrochloride salt, and two subjects to receive placebo. Cohort size of six active subjects was based on analysis that increasing cohort size above six in a first-in-human study gains little in the ability to observe a drug induced event, and results in observing more events that are not related to study drug. Two of the eight subjects in each cohort (sentinel subjects; one active and one placebo) received their doses at least 48 h before the remaining subjects in each cohort.
On each day of use, bulk drug substance (UV-4B for solubilization, SAI Life Sciences Ltd. Telangana, India) was removed from a single-use container, weighed at the study center, and solubilized in 20 mL sterile water for injection (SWFI) (Hospira Inc. Illinois, United States of America). Weight of solid drug substance was converted to dose of UV-4 by applying purity and salt correction factor per pharmacy manual when preparing the dosing solution. UV-4B solution was administered orally with 10 mL of taste-masking agent, OraSweet-SF (Paddock Laboratories LLC, Minneapolis, United States of America) in a total volume of 30 mL, to assist in maintaining study blinding. Placebo was SWFI (20 mL) plus OraSweet-SF (10 mL). Concentrations and doses were calculated and expressed as the active free base form, UV-4. This methodology is consistent with USP<1121>, which recommends that the strength of a drug product or preparation is expressed in terms of the active moiety. Following consumption of active or placebo solution, the dosing container was rinsed with 50 mL of tap water also consumed by subjects. […]

[1] = 3 mg single oral dose, Geo Mean
[2] = 10 mg single oral dose, Ar Mean
[3] = 10 mg single oral dose, Geo Mean
[4] = 30 mg single oral dose, Ar Mean
[5] = 30 mg single oral dose, Geo Mean
[6] = 90 mg single oral dose, Ar Mean
[7] = 90 mg single oral dose, Geo Mean
[8] = 180 mg single oral dose, Ar Mean
[9] = 180 mg single oral dose, Geo Mean
[10] = 360 mg single oral dose, Ar Mean
[11] = 360 mg single oral dose, Geo Mean
[12] = 720 mg single oral dose, Ar Mean
[13] = 720 mg single oral dose, Geo Mean
[14] = 1000 mg single oral dose, Ar Mean
[15] = 1000 mg single oral dose, Geo Mean
[16] = both sexes, human, plasma, po, 3 mg, 3 mg single oral dose, Ar Mean
[17] = both sexes, human, plasma, po, 3 mg, 3 mg single oral dose, Geo Mean
[18] = both sexes, human, plasma, po, 10 mg, 10 mg single oral dose, Ar Mean
[19] = both sexes, human, plasma, po, 10 mg, 10 mg single oral dose, Geo Mean
[20] = both sexes, human, plasma, po, 30 mg, 30 mg single oral dose, Ar Mean
[21] = both sexes, human, plasma, po, 30 mg, 30 mg single oral dose, Geo Mean
[22] = both sexes, human, plasma, po, 90 mg, 90 mg single oral dose, Ar Mean
[23] = both sexes, human, plasma, po, 90 mg, 90 mg single oral dose, Geo Mean
[24] = both sexes, human, plasma, po, 180 mg, 180 mg single oral dose, Ar Mean
[25] = both sexes, human, plasma, po, 180 mg, 180 mg single oral dose, Geo Mean
[26] = both sexes, human, plasma, po, 360 mg, 360 mg single oral dose, Ar Mean
[27] = both sexes, human, plasma, po, 360 mg, 360 mg single oral dose, Geo Mean
[28] = both sexes, human, plasma, po, 720 mg, 720 mg single oral dose, Ar Mean
[29] = both sexes, human, plasma, po, 720 mg, 720 mg single oral dose, Geo Mean
[30] = both sexes, human, plasma, po, 1000 mg, 1000 mg single oral dose, Ar Mean
[31] = both sexes, human, plasma, po, 1000 mg, 1000 mg single oral dose, Geo Mean

## COCCCCCCCCCN1C[C@H](O)[C@@H](O)[C@H](O)[C@H]1CO [UV-4B, N-(9’-methoxynonyl)-1-deoxynojirimycin hydrochloride]
3 mg single oral dose, Ar Mean
  AUC(0-inf): 95.6 ng·h/mL
  CL/F: 32.1 L/h
  Cmax: 22.4 ng/mL
  DNAUC(0-inf): 31.9 ng·h/mL/mg
  DNCmax: 7.45 ng/mL/mg
  t1/2: 10.7 h
[1]
  CL/F: 31.7 L/h
  Cmax: 22.1 ng/mL
  DNAUC(0-inf): 31.5 ng·h/mL/mg
  DNCmax: 7.38 ng/mL/mg
  t1/2: 10.3 h
3 mg single oral dose
  Tmax: 0.50 h
[2]
  CL/F: 24.3 L/h
  Cmax: 84.6 ng/mL
  DNAUC(0-inf): 43.1 ng·h/mL/mg
  DNCmax: 8.46 ng/mL/mg
  t1/2: 12.0 h
[3]
  CL/F: 23.8 L/h
  Cmax: 82.6 ng/mL
  DNAUC(0-inf): 42.0 ng·h/mL/mg
  DNCmax: 8.26 ng/mL/mg
  t1/2: 11.9 h
10 mg single oral dose
  Tmax: 1.00 h
[4]
  CL/F: 24.0 L/h
  Cmax: 293 ng/mL
  DNAUC(0-inf): 42.0 ng·h/mL/mg
  DNCmax: 9.76 ng/mL/mg
  t1/2: 10.0 h
[5]
  CL/F: 23.9 L/h
  Cmax: 289 ng/mL
  DNAUC(0-inf): 41.8 ng·h/mL/mg
  DNCmax: 9.64 ng/mL/mg
  t1/2: 9.98 h
30 mg single oral dose
  Tmax: 0.50 h
[6]
  CL/F: 24.5 L/h
  Cmax: 946 ng/mL
  DNAUC(0-inf): 41.4 ng·h/mL/mg
  DNCmax: 10.5 ng/mL/mg
  t1/2: 10.4 h
[7]
  CL/F: 24.3 L/h
  Cmax: 900 ng/mL
  DNAUC(0-inf): 41.1 ng·h/mL/mg
  DNCmax: 10.0 ng/mL/mg
  t1/2: 10.2 h
90 mg single oral dose
  Tmax: 0.50 h
[8]
  CL/F: 25.4 L/h
  Cmax: 2150 ng/mL
  DNAUC(0-inf): 39.5 ng·h/mL/mg
  DNCmax: 12.0 ng/mL/mg
  t1/2: 8.71 h
[9]
  CL/F: 25.4 L/h
  Cmax: 2060 ng/mL
  DNAUC(0-inf): 39.4 ng·h/mL/mg
  DNCmax: 11.5 ng/mL/mg
  t1/2: 8.66 h
180 mg single oral dose
  Tmax: 0.75 h
[10]
  CL/F: 26.5 L/h
  Cmax: 4570 ng/mL
  DNAUC(0-inf): 38.4 ng·h/mL/mg
  DNCmax: 12.7 ng/mL/mg
  t1/2: 8.14 h
[11]
  CL/F: 26.3 L/h
  Cmax: 4490 ng/mL
  DNAUC(0-inf): 38.1 ng·h/mL/mg
  DNCmax: 12.5 ng/mL/mg
  t1/2: 8.11 h
360 mg single oral dose
  Tmax: 0.50 h
[12]
  CL/F: 22.1 L/h
  Cmax: 9930 ng/mL
  DNAUC(0-inf): 45.7 ng·h/mL/mg
  DNCmax: 13.8 ng/mL/mg
  t1/2: 8.19 h
[13]
  CL/F: 22.0 L/h
  Cmax: 9760 ng/mL
  DNAUC(0-inf): 45.5 ng·h/mL/mg
  DNCmax: 13.6 ng/mL/mg
  t1/2: 8.18 h
720 mg single oral dose
  Tmax: 0.75 h
[14]
  CL/F: 23.6 L/h
  Cmax: 13100 ng/mL
  DNAUC(0-inf): 43.1 ng·h/mL/mg
  DNCmax: 13.1 ng/mL/mg
  t1/2: 8.83 h
[15]
  CL/F: 23.4 L/h
  Cmax: 13000 ng/mL
  DNAUC(0-inf): 42.8 ng·h/mL/mg
  DNCmax: 13.0 ng/mL/mg
  t1/2: 8.58 h
1000 mg single oral dose
  Tmax: 1.00 h
[16]
  AUC(0-t): 56.5 ng·h/mL
  Vd/F: 491 L
[17]
  AUC(0-t): 55.9 ng·h/mL
  Vd/F: 470 L
Both sexes, human, plasma, po, 3 mg, 3 mg single oral dose, Geo Mean, read-out: AUC(0-inf)
  AUC(0-inf): 94.6 ng·h/mL
[18]
  AUC(0-t): 271 ng·h/mL
  Vd/F: 424 L
Both sexes, human, plasma, po, 10 mg, 10 mg single oral dose, Ar Mean, read-out: AUC(0-inf)
  AUC(0-inf): 431 ng·h/mL
[19]
  AUC(0-t): 265 ng·h/mL
  Vd/F: 409 L
Both sexes, human, plasma, po, 10 mg, 10 mg single oral dose, Geo Mean, read-out: AUC(0-inf)
  AUC(0-inf): 420 ng·h/mL
[20]
  AUC(0-t): 901 ng·h/mL
  Vd/F: 349 L
Both sexes, human, plasma, po, 30 mg, 30 mg single oral dose, Ar Mean, read-out: AUC(0-inf)
  AUC(0-inf): 1260 ng·h/mL
[21]
  AUC(0-t): 896 ng·h/mL
  Vd/F: 344 L
Both sexes, human, plasma, po, 30 mg, 30 mg single oral dose, Geo Mean, read-out: AUC(0-inf)
  AUC(0-inf): 1260 ng·h/mL
[22]
  AUC(0-t): 2800 ng·h/mL
  Vd/F: 365 L
Both sexes, human, plasma, po, 90 mg, 90 mg single oral dose, Ar Mean, read-out: AUC(0-inf)
  AUC(0-inf): 3730 ng·h/mL
[23]
  AUC(0-t): 2790 ng·h/mL
  Vd/F: 358 L
Both sexes, human, plasma, po, 90 mg, 90 mg single oral dose, Geo Mean, read-out: AUC(0-inf)
  AUC(0-inf): 3700 ng·h/mL
[24]
  AUC(0-t): 5910 ng·h/mL
  Vd/F: 321 L
Both sexes, human, plasma, po, 180 mg, 180 mg single oral dose, Ar Mean, read-out: AUC(0-inf)
  AUC(0-inf): 7110 ng·h/mL
[25]
  AUC(0-t): 5880 ng·h/mL
  Vd/F: 317 L
Both sexes, human, plasma, po, 180 mg, 180 mg single oral dose, Geo Mean, read-out: AUC(0-inf)
  AUC(0-inf): 7090 ng·h/mL
[26]
  AUC(0-t): 11900 ng·h/mL
  Vd/F: 309 L
Both sexes, human, plasma, po, 360 mg, 360 mg single oral dose, Ar Mean, read-out: AUC(0-inf)
  AUC(0-inf): 13800 ng·h/mL
[27]
  AUC(0-t): 11800 ng·h/mL
  Vd/F: 308 L
Both sexes, human, plasma, po, 360 mg, 360 mg single oral dose, Geo Mean, read-out: AUC(0-inf)
  AUC(0-inf): 13700 ng·h/mL
[28]
  AUC(0-t): 29100 ng·h/mL
  Vd/F: 260 L
Both sexes, human, plasma, po, 720 mg, 720 mg single oral dose, Ar Mean, read-out: AUC(0-inf)
  AUC(0-inf): 32900 ng·h/mL
[29]
  AUC(0-t): 28900 ng·h/mL
  Vd/F: 259 L
Both sexes, human, plasma, po, 720 mg, 720 mg single oral dose, Geo Mean, read-out: AUC(0-inf)
  AUC(0-inf): 32800 ng·h/mL
[30]
  AUC(0-t): 38700 ng·h/mL
  Vd/F: 299 L
Both sexes, human, plasma, po, 1000 mg, 1000 mg single oral dose, Ar Mean, read-out: AUC(0-inf)
  AUC(0-inf): 43100 ng·h/mL
[31]
  AUC(0-t): 38500 ng·h/mL
  Vd/F: 290 L
Both sexes, human, plasma, po, 1000 mg, 1000 mg single oral dose, Geo Mean, read-out: AUC(0-inf)
  AUC(0-inf): 42800 ng·h/mL
